How the values were obtained:
Assay type in all cases: cell-based
[1] = tested on: HCT116 cells (Securin+/+, securin parental, HCT116 FB); test: Growth inhibition (sulforhodamine B, 5 days) of securin parental cells; conditions: Homo sapiens, HCT-116, 120 h, SRB
Protocol: (§1) IC50 analysis was performed for selected fused bicyclic 2-aryl or 2-heteroarylthiazolyl compounds that were tested on HCT116 cells and Securin “knock out” cell lines.
(§2) Cell Culture—HCT116 and securin “knock out” cells. HCT116 and securin “knock out” cells (D8 and F3) were grown in RPMI+5% fetal bovine serum and gentamycin. They were maintained in a humidified 37° C. incubator with 5% CO2. Since the securin “knock out” cells have active chromosomal instability, cells were used at a low passage number of 2-13 passages. At or before passage 13 a new vial of cells was thawed and used for the screen. Cell seeding—HCT116 cells and securin “knock out” cells were trypsinized and suspended in RPMI+5% FBS at a density of 27,000 cells/mL. HCT116 and securin “knock out” cells were seeded separately in wells of a 96-well plate (Falcon Cat # 35-3872) at a cell density of 4000 cells per well. Cells were seeded in 150 μL of RPMI media containing 5% FBS and gentamycin. Cell seeding was performed under aseptic conditions. Cells were allowed to attach and grow overnight in a humidified 37° C. incubator.
(§3) Compound Dilution and Dispensation. A series of stock solutions, 10 mg/mL of fused bicyclic 2-aryl- or 2-heteroarylthiazolyl compounds to be tested, were brought to room temperature. The compounds were diluted 1:50 in RPMI+5% FBS (Highest concentration 200 μg/mL). The compounds were then serially diluted 1:3 across a deep-well titration plate resulting in final concentrations in the plate of 200, 66.7, 22.2, 7.4, 2.4, 0.8, 0.27, 0.091, 0.03, 0.01, and 0.0034 μg/mL with one well left without a compound. 50 μL of this dilution series was added to the 150 μL of cells to result in a final concentration of compound in with the cells of 50, 16.6, 5.5, 1.8, 0.6, 0.2, 0.068, 0.023, 0.0076, 0.0025, and 0.00084 μg/mL. The dilution and addition of compounds to the plates is performed using a Multimek 96 Robot (Beckman Coulter).
(§4) Incubation and analysis. After dosing, the cells in the 96 well plates were returned to the humidified 37° C. incubator. The compounds remained on the cells for 5 days. After 5 days, the cells were fixed to the plates with the addition of 50 μL of 50% (vol/vol) Trichloro Acetic Acid ([…]). The cells were fixed at 4° C. for 1 hour. The plates were washed 5 times in distilled water and allowed to dry. The cells were stained with 0.4% sulforhodamine B (Sigma) in 1% acetic acid. The cells were stained for 15 minutes at room temperature. The plates were then washed 3 times in 1% acetic acid. The plates were dried and the dye was solubilized in 10 mM Tris at pH 8.0. The plates were read on the Absorbence 560 setting on a Victor^2 V Model 1420 Multilabel HTS counter (Perkin Elmer).
(§5) Analysis of Results—IC50 data. Absorbence data was read off of the Victor and was converted to a percentage of the control (untreated) values. IC50 values were graphed and the point at which a 50% inhibition of the control level was determined. […] If the model was not able to determine an IC50, the IC50 was assigned to the lowest concentration that gives a 50% or greater decrease in absorbence compared to control levels. If the calculated IC50 value for a cell line exceeds the top concentration for the assay (typically 50 μg/mL), the assay was scored as >50.
(§6) Selectivity Ratio. The Selectivity Ratio is the ratio of IC50s between the parent cell line and the knock out cell line and is always a positive number and is typically an integer.

[2] = tested on: securin "knock out" cells F3 (Securin-/-); test: Growth inhibition (sulforhodamine B, 5 days) of securin knock out cells F3; conditions: for IC50: 120 h, securin knock out F3 cells, 5 days, SRB; for Selectivity Ratio F3: IC50 HCT116 / IC50 securin KO F3
Protocol: as §1, §2, §3, §4, §5, §6

[3] = tested on: securin "knock out" cells D8 (Securin-/-); test: Growth inhibition (sulforhodamine B, 5 days) of securin knock out cells D8; conditions: for IC50: 120 h, securin knock out D8 cells, 5 days, SRB; for Selectivity Ratio D8: IC50 HCT116 / IC50 securin KO D8
Protocol: as §1, §2, §3, §4, §5, §6

OC1CCCc2nc(-c3ccc(N4CCCC4)cc3)sc21 (stereo not shown) [Example 158, 2-(4-pyrrolidin-1-yl-phenyl)-4,5,6,7-tetrahydro-benzothiazol-7-ol] was tested, and the IC50 [1] was 154 µM, the IC50 [2] was 2.9 µM and the “Selectivity Ratio F3” value [2] was 54. The IC50 [3] was 1.7 µM and the “Selectivity Ratio D8” value [3] was 91.
CN(C)c1ccc(-c2nc3c(s2)C(O)CCC3)c(CO)c1 (stereo not shown) [Example 60, 2-[4-(dimethylamino)-2-(hydroxymethyl)phenyl]-4,5,6,7-tetrahydro-1,3-benzothiazol-7-ol] was tested, and the IC50 [1] was 97.5 µM, the IC50 [2] was 0.12 µM and the “Selectivity Ratio F3” value [2] was 821. For the same molecule, the IC50 [3] was 0.091 µM and the “Selectivity Ratio D8” value [3] was 1076.
CN(C)c1ccc(-c2nc3c(s2)C(O)CCC3)c(C(=O)OCc2ccoc2)c1 (stereo not shown) [Example 116, 3-furylmethyl 5-(dimethylamino)-2-(7-hydroxy-4,5,6,7-tetrahydro-1,3-benzothiazol-2-yl)benzoate] was tested, and the IC50 [1] was 85.2 µM, the IC50 [2] was 0.82 µM and the “Selectivity Ratio F3” value [2] was 104. For the same molecule, the IC50 [3] was 0.59 µM and the “Selectivity Ratio D8” value [3] was 145.
In the case of CN(C)c1ccc(-c2nc3c(s2)C(O)CCC3)c(C(C)(C)O)c1 (stereo not shown) [Example 72, 2-[4-(dimethylamino)-2-(1-hydroxy-1-methylethyl)phenyl]-4,5,6,7-tetrahydro-1,3-benzothiazol-7-ol], the IC50 [1] is reported as 54 µM, the IC50 [2] is reported as 2 µM and the “Selectivity Ratio F3” value [2] is reported as 27. For the same molecule, the IC50 [3] was 1 µM and the “Selectivity Ratio D8” value [3] was 52.
In the case of COC(=O)c1cc(N(C)C)ccc1-c1nc2c(s1)C(O)CCC2 (stereo not shown) [Example 55, methyl 5-(dimethylamino)-2-(7-hydroxy-4,5,6,7-tetrahydro-1,3-benzothiazol-2-yl)benzoate], the IC50 [1] is reported as 105 µM, the IC50 [2] is reported as 1.2 µM and the “Selectivity Ratio F3” value [2] is reported as 90. For the same molecule, the IC50 [3] was 0.65 µM and the “Selectivity Ratio D8” value [3] was 160.
C[S+]([O-])c1cc(N2CCCC2)ccc1-c1nc2c(s1)C(O)CCC2 (stereo not shown) [Example 155, 2-[2-(Methylsulfinyl)-4-pyrrolidin-1-ylphenyl]-4,5,6,7-tetrahydro-1,3-benzothiazol-7-ol] was tested, and the IC50 [1] was 38.8 µM, the IC50 [2] was 0.17 µM and the “Selectivity Ratio F3” value [2] was 224. The IC50 [3] was 0.099 µM and the “Selectivity Ratio D8” value [3] was 390.
In the case of C=CCOC(=O)c1cc(N(C)C)ccc1-c1nc2c(s1)C(O)CCC2 (stereo not shown) [Example 112, allyl 5-(dimethylamino)-2-(7-hydroxy-4,5,6,7-tetrahydro-1,3-benzothiazol-2-yl)benzoate], the IC50 [1] is reported as 97.3 µM, the IC50 [2] is reported as 0.72 µM and the “Selectivity Ratio F3” value [2] is reported as 135. For the same molecule, the IC50 [3] was 0.54 µM and the “Selectivity Ratio D8” value [3] was 182.
For CN(C)c1ccc(-c2nc3c(s2)C(O)CCC3)c(Br)c1 (stereo not shown) [Example 140, 2-[2-bromo-4-(dimethylamino)phenyl]-4,5,6,7-tetrahydro-1,3-benzothiazol-7-ol], the IC50 [1] was 37.2 µM, the IC50 [2] was 1.8 µM and the “Selectivity Ratio F3” value [2] was 21. The IC50 [3] was 0.57 µM and the “Selectivity Ratio D8” value [3] was 66.
For CC(=O)c1c(-c2nc3c(s2)C(O)CCC3)ccc(N(C)C)c1Br (stereo not shown) [Example 81, 1-[2-bromo-3-(dimethylamino)-6-(7-hydroxy-4,5,6,7-tetrahydro-1,3-benzothiazol-2-yl)phenyl]ethanone], the IC50 [1] was 58.9 µM, the IC50 [2] was 0.35 µM and the “Selectivity Ratio F3” value [2] was 170. The IC50 [3] was 0.13 µM and the “Selectivity Ratio D8” value [3] was 459.
In the case of CN(C)c1ccc(-c2nc3c(s2)C(O)CCC3)c(C(=O)OCc2ccncc2)c1 (stereo not shown) [Example 127, pyridin-4-ylmethyl 5-(dimethylamino)-2-(7-hydroxy-4,5,6,7-tetrahydro-1,3-benzothiazol-2-yl)benzoate], the IC50 [1] is reported as 100 µM, the IC50 [2] is reported as 6.3 µM and the “Selectivity Ratio F3” value [2] is reported as 16. The IC50 [3] was 4.9 µM and the “Selectivity Ratio D8” value [3] was 20.
With CCc1cc(N(C)C)ccc1-c1nc2c(s1)C(O)CCC2 (stereo not shown) [Example 47, 2-[4-(dimethylamino)-2-ethylphenyl]-4,5,6,7-tetrahydro-1,3-benzothiazol-7-ol] the IC50 [1] was 76.4 µM, the IC50 [2] was 3 µM and the “Selectivity Ratio F3” value [2] was 26. The IC50 [3] was 0.43 µM and the “Selectivity Ratio D8” value [3] was 179.
